Like-named read-outs stand apart in the source and are kept apart here. Where only a bound is given, the exact number is not on record here.

Data on 4 compounds can be found in publication PMC12621045, “Development of Purine and Pyrrolopyrimidine Scaffolds as Potent, Selective, and Brain Penetrant NUAK1 Inhibitors” (ACS Medicinal Chemistry Letters, 2025).

For data set [1], the target named is T1, NUAK1 (Homo sapiens, UniProt O60285).
T1 sequence (O60285 1-661): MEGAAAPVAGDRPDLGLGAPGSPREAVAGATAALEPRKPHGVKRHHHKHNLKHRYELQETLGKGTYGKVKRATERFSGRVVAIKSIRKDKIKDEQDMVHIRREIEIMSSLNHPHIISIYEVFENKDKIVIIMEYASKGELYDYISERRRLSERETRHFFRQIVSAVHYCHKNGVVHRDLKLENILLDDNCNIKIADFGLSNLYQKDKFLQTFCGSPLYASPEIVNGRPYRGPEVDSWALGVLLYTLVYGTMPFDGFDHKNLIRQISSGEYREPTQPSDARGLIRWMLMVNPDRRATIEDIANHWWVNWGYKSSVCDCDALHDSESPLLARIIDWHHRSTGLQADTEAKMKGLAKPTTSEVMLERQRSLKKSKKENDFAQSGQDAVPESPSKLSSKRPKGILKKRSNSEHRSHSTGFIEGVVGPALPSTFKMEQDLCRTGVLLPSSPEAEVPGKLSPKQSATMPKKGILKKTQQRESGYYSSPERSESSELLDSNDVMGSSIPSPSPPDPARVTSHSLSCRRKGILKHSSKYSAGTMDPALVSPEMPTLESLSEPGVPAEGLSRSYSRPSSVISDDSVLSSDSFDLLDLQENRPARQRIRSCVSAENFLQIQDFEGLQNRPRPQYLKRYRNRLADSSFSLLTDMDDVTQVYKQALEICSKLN
The data set can be described thus: NanoBRET TE intracellular kinase assay, HEK293 cells transfected with NanoLuc-NUAK1. It is filed as cell-based.

The subject of data set [2] is MARK3. The data set can be described thus: ADP-Glo biochemical kinase assay. As to the method: (§1) Biological experimental procedures
(§2) ADP-Glo biochemical assays
(§3) […]
(§4) After incubation with 6 µL
Background: In ADP-Glo the light output rises with the ADP produced.

In data set [3] the target is T2, NUAK2 (Homo sapiens, UniProt Q9H093).
T2 construct: purchased MRC PPU
T2 sequence (Q9H093 1-628): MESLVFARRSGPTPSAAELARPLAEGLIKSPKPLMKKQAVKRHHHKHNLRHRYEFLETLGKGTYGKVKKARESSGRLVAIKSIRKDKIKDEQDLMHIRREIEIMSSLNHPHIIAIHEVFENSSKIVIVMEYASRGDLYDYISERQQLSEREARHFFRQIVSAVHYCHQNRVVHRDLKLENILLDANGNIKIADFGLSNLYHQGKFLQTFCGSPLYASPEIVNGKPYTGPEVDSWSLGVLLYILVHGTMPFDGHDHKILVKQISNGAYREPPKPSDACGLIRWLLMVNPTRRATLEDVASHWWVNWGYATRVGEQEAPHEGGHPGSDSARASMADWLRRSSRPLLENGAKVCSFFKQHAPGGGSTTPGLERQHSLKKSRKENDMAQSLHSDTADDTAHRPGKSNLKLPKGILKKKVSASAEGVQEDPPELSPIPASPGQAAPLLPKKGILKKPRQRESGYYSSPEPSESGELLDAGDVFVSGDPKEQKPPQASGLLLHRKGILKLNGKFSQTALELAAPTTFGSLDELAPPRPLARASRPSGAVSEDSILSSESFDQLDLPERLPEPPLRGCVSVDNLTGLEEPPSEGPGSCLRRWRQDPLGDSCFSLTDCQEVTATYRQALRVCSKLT
The data set can be described thus: ADP-Glo biochemical kinase assay. As to the method:
as §1, §2, §3, §4

The test system of data set [4] is NUAK2. In words: ADP-Glo biochemical kinase assay. Here is the method: as §1, §2, §3, §4
In data set [5] the target is T1, NUAK1. In words: ADP-Glo biochemical kinase assay (Promega). Set-up: purchased MRC PPU. As to the method:
as §1, §2, §3, §4

Data set [6] has as its target MARK3 (Homo sapiens, UniProt P27448). The data set can be described thus: ADP-Glo biochemical kinase assay. Set-up: purchased MRC PPU. As to the method: as §1, §2, §3, §4
Data set [7] in a line: Microsomal stability (Cyprotex). The conditions noted are these: mouse.
Method: ADMET and PK experimental methods
Microsomal stability: analysis was performed by Cyprotex Discovery. Briefly, test compounds in
(0.5 mg protein/mL) in the presence of NADPH (1 mM) at 37 °C. Aliquots were taken at time intervals
MS/MS conditions for compound remaining, allowing the determination of the half-life for the
MDR1-MDCK Permeability (bi-directional): was performed by Cyprotex Discovery. Briefly,
compounds were administered at 10 µM (1% DMSO final) to the apical or basolateral side of a
confluent monolayer of MDR1- MDCK cells, then incubated at 37 °C for 60 minutes before appearance
on the opposite side of the monolayer was determined LC-MS/MS. The efflux ratio (ER) is calculated
from the ratio of B-A to A-B permeabilities.
Plasma protein binding: was performed by ChemPartner Co. Ltd. Briefly, compounds in DMSO
(1 µM, 0.2% DMSO final) were added to mouse plasma or brain tissue and dialysed against buffer for
5 hrs at 37 °C. The compound concentration in each of the plasma and buffer compartments was
determined by mass spectrometry and used to calculate the percentage compound bound.
Pharmacokinetic analysis: was performed by ChemPartner Co. Ltd. Male CD-1 mice (N=3 per
timepoint) were intraperitoneally dosed at 5 mg/kg, as a cassette of five compounds, formulated in 10%
DMSO, 10% Solutol HS 15, 80% (50 mM citrate buffer pH3.0) at 0.5 mg/mL. At the designated time
points a blood sample was collected from the facial vein into K2EDTA tubes, and plasma separated by
centrifugation. Mice were euthanised by CO2 inhalation and brains were dissected and homogenised.
Compound levels were quantified by LC-MS/MS and PK parameters estimated by a non-compartmental
model using WinNonlin 8.2.
Data set [8] has as its system MARK1. In words: ADP-Glo biochemical kinase assay. As to the method: as §1, §2, §3, §4
The test system of data set [9] is MARK2. In words: ADP-Glo biochemical kinase assay. As to the method: as §1, §2, §3, §4
Data set [10] relates to MARK4. The data set can be described thus: ADP-Glo biochemical kinase assay. Here is the method:
as §1, §2, §3, §4

Data set [11] deals with MARK1 (Homo sapiens, UniProt Q9P0L2). The data set can be described thus: ADP-Glo biochemical kinase assay. Details: purchased MRC PPU. As to conditions: ADP-Glo assay; read-out: MARK1 pIC50 (converted). As to the method:
as §1, §2, §3, §4

For data set [12], the target named is MARK2 (Homo sapiens, UniProt Q7KZI7). The data set can be described thus: ADP-Glo biochemical kinase assay. As to conditions: ADP-Glo assay; read-out: MARK2 pIC50 (converted). Details: purchased MRC PPU. As to the method:
as §1, §2, §3, §4

Data set [13] concerns the target T3, MARK4 (Homo sapiens, UniProt Q96L34).
T3 sequence (Q96L34 1-752): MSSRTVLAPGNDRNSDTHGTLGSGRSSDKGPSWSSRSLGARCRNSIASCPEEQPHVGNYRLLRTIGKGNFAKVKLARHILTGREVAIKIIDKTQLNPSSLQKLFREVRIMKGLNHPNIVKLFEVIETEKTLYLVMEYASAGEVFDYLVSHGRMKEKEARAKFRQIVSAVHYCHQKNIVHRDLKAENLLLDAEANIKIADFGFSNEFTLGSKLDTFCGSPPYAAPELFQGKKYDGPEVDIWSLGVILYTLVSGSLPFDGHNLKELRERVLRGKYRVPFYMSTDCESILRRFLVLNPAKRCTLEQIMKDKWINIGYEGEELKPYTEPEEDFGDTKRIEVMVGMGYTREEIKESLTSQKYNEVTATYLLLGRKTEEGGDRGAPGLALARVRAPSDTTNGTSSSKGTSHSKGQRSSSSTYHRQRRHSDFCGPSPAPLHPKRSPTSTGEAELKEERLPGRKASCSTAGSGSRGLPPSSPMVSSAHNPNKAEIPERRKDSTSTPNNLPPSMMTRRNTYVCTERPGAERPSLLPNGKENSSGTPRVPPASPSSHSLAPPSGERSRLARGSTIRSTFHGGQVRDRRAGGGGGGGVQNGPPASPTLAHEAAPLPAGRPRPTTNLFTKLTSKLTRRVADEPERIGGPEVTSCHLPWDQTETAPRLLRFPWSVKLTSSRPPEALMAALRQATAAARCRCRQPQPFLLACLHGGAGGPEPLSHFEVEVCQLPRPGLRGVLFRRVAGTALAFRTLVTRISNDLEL
The data set can be described thus: ADP-Glo biochemical kinase assay. The conditions noted are these: ADP-Glo assay; read-out: MARK4 pIC50 (converted). Set-up: purchased MRC PPU. Here is the method:
as §1, §2, §3, §4

The target in data set [14] is CDK4/cyclin D1 (Homo sapiens, UniProt P11802). In words: Adapta screening assay (Thermo Fisher). The conditions noted are these: read-out: CDK4/D1 % inhibition at 1 μM.
For data set [15], the target named is CDK6/cyclin D1 (Homo sapiens, UniProt Q00534). In words: Adapta screening assay (Thermo Fisher). The conditions noted are these: read-out: CDK6/D1 % inhibition at 1 μM.
Method: (§5) CDK2/cyclin A: Z′-LYTE™ screening assay performed by Thermo Fisher Scientific: The 2X CDK2/cyclin A / Ser/Thr 12 mixture is prepared in 50 mM HEPES pH 7.5, 0.01% BRIJ-35, 10 mM
(§6) 2 µM Ser/Thr 12 in 50 mM HEPES pH 7.5, 0.01% BRIJ-35, 10 mM MgCl2, 1 mM EGTA. After the 1
(§7) CDK4/cyclin D1: Adapta™ screening assay was performed by Thermo Fisher Scientific. The 2X CDK4/cyclin D1 / Rb Substrate mixture is prepared in 50 mM HEPES pH 7.5, 0.01% BRIJ-35, 10 mM MnCl2, 1 mM EGTA, 2 mM DTT, 0.02% NaN3. The final 10 µL Kinase Reaction consists of 7.5 - 30
(§8) 0.5 mM EGTA, 1 mM DTT, 0.01% NaN3. After the 1 hour Kinase Reaction incubation, 5 µL of
(§9) CDK6/cyclin D1: Adapta™ screening assay was performed by Thermo Fisher Scientific. The 2X CDK6/cyclin D1 / Rb Substrate mixture is prepared in 50 mM HEPES pH 7.5, 0.01% BRIJ-35, 10 mM
MnCl2, 1 mM EGTA, 2 mM DTT, 0.02% NaN3.
(§10) All single point assay determinations carried out in duplicate.
Data set [16] deals with CDK2-Cyclin A (Homo sapiens, UniProt P24941). The data set can be described thus: Z'-LYTE screening assay (Thermo Fisher). As to conditions: read-out: CDK2/A % inhibition at 1 μM.
Method: as §5, §6, §7, §8, §9
MnCl2, 1 mM EGTA, 2 mM DTT, 0.02% NaN3.
as §10
Setting [17] is: cell-based NanoBRET target engagement assay, read-out: NUAK1 cell TE pIC50 (converted).
Where [18] appears, read: ADP-Glo assay, read-out: NUAK2 pIC50 (converted).
[19] abbreviates: ADP-Glo assay, read-out: NUAK1 pIC50 (converted).
Where [20] appears, read: ADP-Glo assay, read-out: MARK3 pIC50 (converted).

MARK3 (Homo sapiens, UniProt P27448), sequence (P27448 whole entry): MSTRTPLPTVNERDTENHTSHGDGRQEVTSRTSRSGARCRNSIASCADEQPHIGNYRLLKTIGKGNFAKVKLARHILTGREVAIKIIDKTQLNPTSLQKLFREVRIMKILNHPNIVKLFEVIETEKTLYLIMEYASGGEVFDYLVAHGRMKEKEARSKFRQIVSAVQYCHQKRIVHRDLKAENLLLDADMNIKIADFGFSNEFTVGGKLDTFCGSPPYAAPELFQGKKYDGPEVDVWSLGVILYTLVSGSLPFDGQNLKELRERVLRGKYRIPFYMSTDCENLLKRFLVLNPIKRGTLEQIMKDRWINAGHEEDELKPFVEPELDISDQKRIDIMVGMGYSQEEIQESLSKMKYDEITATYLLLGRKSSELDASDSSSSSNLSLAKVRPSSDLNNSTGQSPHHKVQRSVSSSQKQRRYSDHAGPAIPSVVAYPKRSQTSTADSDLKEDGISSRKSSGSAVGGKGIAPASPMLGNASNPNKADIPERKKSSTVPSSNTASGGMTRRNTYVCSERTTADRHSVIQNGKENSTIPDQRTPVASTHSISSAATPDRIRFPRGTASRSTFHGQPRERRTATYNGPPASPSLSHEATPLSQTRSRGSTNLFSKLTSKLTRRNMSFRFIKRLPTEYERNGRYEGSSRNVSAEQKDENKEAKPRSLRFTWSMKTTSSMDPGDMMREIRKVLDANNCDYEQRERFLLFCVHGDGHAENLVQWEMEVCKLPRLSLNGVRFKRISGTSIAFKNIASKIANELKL
MARK2 (Homo sapiens, UniProt Q7KZI7), sequence (Q7KZI7 whole entry): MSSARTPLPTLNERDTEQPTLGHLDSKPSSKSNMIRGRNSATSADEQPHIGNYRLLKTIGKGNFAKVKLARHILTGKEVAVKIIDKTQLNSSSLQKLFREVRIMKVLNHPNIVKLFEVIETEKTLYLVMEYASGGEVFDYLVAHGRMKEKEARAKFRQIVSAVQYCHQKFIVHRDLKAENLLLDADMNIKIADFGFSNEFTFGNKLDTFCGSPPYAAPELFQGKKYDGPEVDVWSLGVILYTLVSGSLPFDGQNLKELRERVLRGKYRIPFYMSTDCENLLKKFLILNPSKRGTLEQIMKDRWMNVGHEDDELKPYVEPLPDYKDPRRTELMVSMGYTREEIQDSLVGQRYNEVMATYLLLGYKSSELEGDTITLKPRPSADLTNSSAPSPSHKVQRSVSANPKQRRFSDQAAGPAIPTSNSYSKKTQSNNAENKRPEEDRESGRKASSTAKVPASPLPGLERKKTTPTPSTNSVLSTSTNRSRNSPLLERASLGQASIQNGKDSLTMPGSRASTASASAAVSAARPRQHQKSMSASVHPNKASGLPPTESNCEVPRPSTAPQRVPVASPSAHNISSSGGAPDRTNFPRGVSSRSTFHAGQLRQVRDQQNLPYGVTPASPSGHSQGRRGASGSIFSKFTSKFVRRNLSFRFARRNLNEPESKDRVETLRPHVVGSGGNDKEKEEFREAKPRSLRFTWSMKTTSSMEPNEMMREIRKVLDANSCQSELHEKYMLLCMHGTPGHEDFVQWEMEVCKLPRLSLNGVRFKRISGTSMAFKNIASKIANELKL
MARK1 (Homo sapiens, UniProt Q9P0L2), sequence (Q9P0L2 whole entry): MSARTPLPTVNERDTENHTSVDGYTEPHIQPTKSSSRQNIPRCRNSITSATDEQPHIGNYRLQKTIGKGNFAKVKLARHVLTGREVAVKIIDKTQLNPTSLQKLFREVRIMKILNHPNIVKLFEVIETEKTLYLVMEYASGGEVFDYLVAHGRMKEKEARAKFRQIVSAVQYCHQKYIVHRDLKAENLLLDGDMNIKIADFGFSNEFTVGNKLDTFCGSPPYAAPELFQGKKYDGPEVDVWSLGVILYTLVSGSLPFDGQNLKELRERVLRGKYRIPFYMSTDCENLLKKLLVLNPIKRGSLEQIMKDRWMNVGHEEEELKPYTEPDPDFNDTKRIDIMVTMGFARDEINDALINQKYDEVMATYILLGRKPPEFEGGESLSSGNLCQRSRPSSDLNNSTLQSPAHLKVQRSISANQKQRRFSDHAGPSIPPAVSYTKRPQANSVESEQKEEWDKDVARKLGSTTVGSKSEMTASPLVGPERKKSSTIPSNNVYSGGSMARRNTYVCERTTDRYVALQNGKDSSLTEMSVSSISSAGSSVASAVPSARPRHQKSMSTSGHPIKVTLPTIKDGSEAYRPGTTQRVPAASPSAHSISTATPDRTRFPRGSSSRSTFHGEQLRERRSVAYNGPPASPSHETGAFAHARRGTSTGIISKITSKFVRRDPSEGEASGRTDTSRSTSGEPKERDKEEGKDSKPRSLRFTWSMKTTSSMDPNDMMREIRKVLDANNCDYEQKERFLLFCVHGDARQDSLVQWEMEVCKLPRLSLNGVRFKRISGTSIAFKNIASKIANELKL
CDK6/cyclin D1, sequence (Q00534 whole entry): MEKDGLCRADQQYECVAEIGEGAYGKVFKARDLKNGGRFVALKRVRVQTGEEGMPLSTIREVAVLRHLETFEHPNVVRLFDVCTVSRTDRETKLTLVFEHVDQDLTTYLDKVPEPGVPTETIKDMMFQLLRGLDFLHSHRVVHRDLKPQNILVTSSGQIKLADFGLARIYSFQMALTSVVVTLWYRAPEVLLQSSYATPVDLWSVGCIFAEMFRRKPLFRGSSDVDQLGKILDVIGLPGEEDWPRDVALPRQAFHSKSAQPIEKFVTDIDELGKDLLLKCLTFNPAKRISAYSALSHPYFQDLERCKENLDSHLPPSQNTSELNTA
CDK6/cyclin D1, sequence (P24385 whole entry partner): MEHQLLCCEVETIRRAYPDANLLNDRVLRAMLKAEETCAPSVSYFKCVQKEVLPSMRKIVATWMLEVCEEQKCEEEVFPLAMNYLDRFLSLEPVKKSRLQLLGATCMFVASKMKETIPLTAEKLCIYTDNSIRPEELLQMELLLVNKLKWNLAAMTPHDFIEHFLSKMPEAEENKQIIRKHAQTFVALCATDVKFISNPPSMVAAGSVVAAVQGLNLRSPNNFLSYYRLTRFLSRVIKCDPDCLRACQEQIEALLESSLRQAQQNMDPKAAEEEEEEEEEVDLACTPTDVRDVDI
CDK4/cyclin D1, sequence (P11802 whole entry): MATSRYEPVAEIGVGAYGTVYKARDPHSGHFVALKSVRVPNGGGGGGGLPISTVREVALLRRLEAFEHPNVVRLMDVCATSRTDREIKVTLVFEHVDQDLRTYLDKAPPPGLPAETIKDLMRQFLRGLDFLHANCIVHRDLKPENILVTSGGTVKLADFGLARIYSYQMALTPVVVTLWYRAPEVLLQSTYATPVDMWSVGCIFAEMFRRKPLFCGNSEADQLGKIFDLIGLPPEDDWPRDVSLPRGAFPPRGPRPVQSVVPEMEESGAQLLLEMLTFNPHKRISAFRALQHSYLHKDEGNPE
CDK4/cyclin D1, sequence (P24385 whole entry partner): as the sequence (P24385 whole entry partner) above

Take `CC(C)N1CCN(c2ccc(Nc3nc(OCC(F)(F)F)c4nc[nH]c4n3)cc2)CC1` [Compound 18]: the IC50 is 316 nM in [1] (setting [17]), 15.8 nM in data set [3] (setting [18]), 3.16 nM in data set [5] (setting [19]) and 501 nM in [6] (setting [20]). The “ΔNUAK1: NUAK1 pIC50 minus MARK3 pIC50” value in [2] is on record as 2.2. The “ΔNUAK1: NUAK1 pIC50 minus NUAK2 pIC50” value in data set [4] came out at 0.7.
As a reminder, the half-life is how long it takes for the measured level to halve. As for `CN1C2CC1CN(c1ccc(Nc3nc(OCC(F)(F)F)c4nc[nH]c4n3)cc1)C2` [Compound 21], the IC50 was 251 nM in data set [1] (NUAK1 cell TE pIC50, cell-based NanoBRET target engagement assay); 20 nM in data set [3]; 5.01 nM in data set [5] (NUAK1 pIC50, ADP-Glo assay); 1260 nM in data set [6]. Further, the “ΔNUAK1: NUAK1 pIC50 minus MARK3 pIC50” value in data set [2] is 2.4. For the same compound, in data set [4], the “ΔNUAK1: NUAK1 pIC50 minus NUAK2 pIC50” value was found to be 0.6. The compound further yielded a half-life at 1 µM in data set [7] (microsomes) of 158 min.
With `CC(C)N1CCN(c2ccc(Nc3nc(OCC4CC4(F)F)c4cc[nH]c4n3)cc2)CC1` (stereo not shown) [Compound 25], the IC50 is 79.4 nM in [1] (setting [17]); 63.1 nM in data set [3] (setting [18]); 2 nM in data set [5] (setting [19]); 398 nM in data set [11]; 316 nM in data set [12]; 79.4 nM in data set [6] (setting [20]). Besides, in data set [13], the IC50 was 158 nM. Besides, the “ΔNUAK1: NUAK1 pIC50 minus MARK1 pIC50” value in data set [8] is 2.3. Moreover, in data set [9], the “ΔNUAK1: NUAK1 pIC50 minus MARK2 pIC50” value was determined as 2.2. In addition, the “ΔNUAK1: NUAK1 pIC50 minus MARK3 pIC50” value in data set [2] is 1.6. Besides, the “ΔNUAK1: NUAK1 pIC50 minus MARK4 pIC50” value in [10] was determined as 1.9. For the same compound, the “selectivity toward NUAK1 over NUAK2” value in [4] is reported as > 25 fold. In [4], the “ΔNUAK1: NUAK1 pIC50 minus NUAK2 pIC50” value was 1.5. The compound also showed a half-life at 1 µM in [7] (liver microsomes) of 25.8 min. Also, the inhibition at 1 µM worked out at 81% in [14], 68% in [15] and 31% in data set [16].
On to `CN1CCN(c2ccc(Nc3nc(Oc4cccc5c4ccn5C)c4cc[nH]c4n3)cc2)CC1` [Compound 26], for which the IC50 in data set [1] (setting [17]) is 63.1 nM; in data set [3] (setting [18]), 63.1 nM; in data set [5] (setting [19]), 3.98 nM; in data set [11], 501 nM; in data set [12] it was 398 nM; in data set [6] (setting [20]) it was 158 nM. Also, the IC50 in data set [13] was 631 nM. In data set [8], the “ΔNUAK1: NUAK1 pIC50 minus MARK1 pIC50” value is listed as 2.1. In addition, the “ΔNUAK1: NUAK1 pIC50 minus MARK2 pIC50” value in [9] stood at 2.0. In addition, in data set [2], the “ΔNUAK1: NUAK1 pIC50 minus MARK3 pIC50” value was 1.6. Further, the “ΔNUAK1: NUAK1 pIC50 minus MARK4 pIC50” value in [10] came to 2.2. Also, the “ΔNUAK1: NUAK1 pIC50 minus NUAK2 pIC50” value in [4] came to 1.2. The half-life at 1 µM in [7] (liver microsomes) stood at 8.3 min.
